# Measurements: PubChem BioAssay AID330 (DTP/NCI, 2004)
# “And” between values parts separate entries of the source, which are not always exact repeats. Identical values can stand only once. Inconclusive results and toxic doses are left out.
# System: P388 leukemia ip, CD2F1 mice, survival T/C
# Assay: NCI In Vivo Anticancer Drug Screen. Data for tumor model P388 Leukemia (intraperitoneal) in CD2F1 (CDF1) mice
# Details: endpoint: median survival time, higher = longer survival
# Procedure, shortened: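 Mice carrying the transplanted tumor received test compound or vehicle. Survival was recorded in each group, and the value is the treated-group measurement divided by that of the vehicle-treated control group.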
# [1] = dose: 50.0 mg/kg/injection, schedule: Q01DX009 (ip), vehicle: saline
# [2] = dose: 100.0 mg/kg/injection, schedule: Q01DX009 (ip), vehicle: saline
# [3] = dose: 100.0 mg/kg/injection, schedule: Q01DX009 (ip), vehicle: saline with Tween-80
# [4] = dose: 200.0 mg/kg/injection, schedule: Q01DX009 (ip), vehicle: saline with Tween-80
compound,measurement,setting,value
FC(F)(F)c1cc([C@H]2[C@@H]3CCCCN32)c2cccc(C(F)(F)F)c2n1 (stereo not given in full),T/C,"dose: 12.5 mg/kg/injection, schedule: Q04DX003 (ip), vehicle: distilled water + Tween-80",93 % of control
same,T/C,"dose: 25.0 mg/kg/injection, schedule: Q04DX003 (ip), vehicle: distilled water + Tween-80",97 % of control
same,T/C,"dose: 50.0 mg/kg/injection, schedule: Q04DX003 (ip), vehicle: distilled water + Tween-80",96 % of control
same,T/C,"dose: 100.0 mg/kg/injection, schedule: Q04DX003 (ip), vehicle: distilled water + Tween-80",95 % of control
same,T/C,"dose: 200.0 mg/kg/injection, schedule: Q04DX003 (ip), vehicle: distilled water + Tween-80",99 % of control
same,T/C,"dose: 400.0 mg/kg/injection, schedule: Q04DX003 (ip), vehicle: distilled water + Tween-80",103 % of control
COC(=O)CCC(=S)N(C)C,T/C,"dose: 50.0 mg/kg/injection, schedule: Q01DX005 (ip), vehicle: Klucel (hydroxypropylcellulose) (HPC)",101 % of control
same,T/C,"dose: 100.0 mg/kg/injection, schedule: Q01DX005 (ip), vehicle: Klucel (hydroxypropylcellulose) (HPC)",101 % of control
same,T/C,"dose: 200.0 mg/kg/injection, schedule: Q01DX005 (ip), vehicle: Klucel (hydroxypropylcellulose) (HPC)",103 % of control
COC(=O)C1(CC(=O)C=C(C)C)NC(=S)NC(=O)C1C#N (stereo not given),T/C,"dose: 60.0 mg/kg/injection, schedule: Q01DX005 (ip), vehicle: saline",98 % of control
same,T/C,"dose: 120.0 mg/kg/injection, schedule: Q01DX005 (ip), vehicle: saline",103 % of control
same,T/C,"dose: 240.0 mg/kg/injection, schedule: Q01DX005 (ip), vehicle: saline",98 % of control
O=C(O)CSc1cc(Cl)ccc1Cl,T/C,"dose: 12.5 mg/kg/injection, schedule: Q04DX003 (ip), vehicle: Klucel (hydroxypropylcellulose) (HPC)",102 % of control
same,T/C,"dose: 25.0 mg/kg/injection, schedule: Q04DX003 (ip), vehicle: Klucel (hydroxypropylcellulose) (HPC)",100 % of control
same,T/C,"dose: 50.0 mg/kg/injection, schedule: Q04DX003 (ip), vehicle: Klucel (hydroxypropylcellulose) (HPC)",102 % of control
same,T/C,"dose: 100.0 mg/kg/injection, schedule: Q04DX003 (ip), vehicle: Klucel (hydroxypropylcellulose) (HPC)",103 % of control
CCCCNC(C)C1(O)Cc2c(O)c3c(c(O)c2C(OC2CC(N)C(O)C(C)O2)C1)C(=O)c1c(OC)cccc1C3=O (stereo not given),T/C,"dose: 0.62 mg/kg/injection, schedule: Q01DX009 (ip), vehicle: water",111 % of control
same,T/C,"dose: 10.0 mg/kg/injection, schedule: Q01DX009 (ip), vehicle: water",158 % of control and 161 % of control
same,T/C,"dose: 20.0 mg/kg/injection, schedule: Q01DX009 (ip), vehicle: water",172 % of control and 181 % of control
same,T/C,"dose: 40.0 mg/kg/injection, schedule: Q01DX009 (ip), vehicle: water",224 % of control
same,T/C,"dose: 80.0 mg/kg/injection, schedule: Q01DX009 (ip), vehicle: water",218 % of control
C=C(C)CC(C)/C(=N\N(C)C)c1ccccc1 (stereo not given),T/C,[1],98 % of control
same,T/C,[2],100 % of control
same,T/C,"dose: 200.0 mg/kg/injection, schedule: Q01DX009 (ip), vehicle: saline",100 % of control
N#[O+].O.O=N[O-].O=N[O-].O=N[O-].O=N[O-].[Ru],T/C,"dose: 3.13 mg/kg/injection, schedule: Q04DX003 (ip), vehicle: water",113 % of control
same,T/C,"dose: 6.25 mg/kg/injection, schedule: Q04DX003 (ip), vehicle: water",106 % of control and 118 % of control
CCOC(=O)CN(C)C(c1ccccc1)c1cccs1 (stereo not given),T/C,"dose: 100.0 mg/kg/injection, schedule: Q04DX002 (ip), vehicle: Klucel (hydroxypropylcellulose) (HPC)",102 % of control
same,T/C,"dose: 200.0 mg/kg/injection, schedule: Q04DX002 (ip), vehicle: Klucel (hydroxypropylcellulose) (HPC)",105 % of control
CC(=O)Nc1cccc2c1C(=O)OC2=O,T/C,"dose: 50.0 mg/kg/injection, schedule: Q01DX009 (ip), vehicle: saline with Tween-80",100 % of control
same,T/C,[3],109 % of control
same,T/C,[4],108 % of control
same,T/C,"dose: 400.0 mg/kg/injection, schedule: Q01DX009 (ip), vehicle: saline with Tween-80",102 % of control
CCC(=O)n1c(Cl)c(/C=N/NC(N)=S)c2ccccc21,T/C,"dose: 100.0 mg/kg/injection, schedule: Q01DX001 (ip), vehicle: Klucel (hydroxypropylcellulose) (HPC)",95 % of control
same,T/C,"dose: 200.0 mg/kg/injection, schedule: Q01DX001 (ip), vehicle: Klucel (hydroxypropylcellulose) (HPC)",100 % of control
same,T/C,"dose: 400.0 mg/kg/injection, schedule: Q01DX001 (ip), vehicle: Klucel (hydroxypropylcellulose) (HPC)",93 % of control
CCO/C=C1\SC(=S)N(c2cccc(OC)c2)C1=O,T/C,[3],118 % of control
same,T/C,"dose: 117.0 mg/kg/injection, schedule: Q04DX003 (ip), vehicle: saline with Tween-80",113 % of control
same,T/C,"dose: 178.0 mg/kg/injection, schedule: Q04DX003 (ip), vehicle: saline with Tween-80",118 % of control
same,T/C,[4],118 % of control
same,T/C,"dose: 266.0 mg/kg/injection, schedule: Q04DX003 (ip), vehicle: saline with Tween-80",109 % of control
O=c1[nH]c(=O)c2nc3c([N+](=O)[O-])ccc(-c4cccc5ccccc45)c3nc2[nH]1,T/C,[1],109 % of control
same,T/C,[2],100 % of control
O=C1c2ccccc2C(=O)c2c1ccc1c2CCC1,T/C,"dose: 7.5 mg/kg/injection, schedule: Q01DX009 (ip), vehicle: saline with Tween-80",97 % of control
same,T/C,"dose: 15.0 mg/kg/injection, schedule: Q01DX009 (ip), vehicle: saline with Tween-80",95 % of control
same,T/C,"dose: 30.0 mg/kg/injection, schedule: Q01DX009 (ip), vehicle: saline with Tween-80",105 % of control
